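Each compound was tested at five concentrations against cells in 96-well plates for 48 hours. GI50 is the concentration that inhibits growth by half. The concentration for full growth arrest is given as TGI.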 Some results are limits rather than exact numbers.

Among the test systems are DLD-1 colon; DMS 114 small cell lung; LXFL 529 NSCLC; XF 498 CNS; HOP-18 NSCLC; KM20L2 colon; RXF-631 renal; MDA-N.
Assay in all cases: NCI tumour cell line growth inhibition, 48 h

Regarding `COC(=O)c1c(O)ccc(O)c1C(C(C)=O)C(C)=O`, the TGI in the experiment with DLD-1 colon, in the experiment on DMS 114 small cell lung, in the experiment with LXFL 529 NSCLC and with XF 498 CNS was more than 100 µM throughout.

For the molecule `Cc1cccc(NC(=O)C(=O)C(C2OC(=O)c3ccccc32)[N+](=O)[O-])c1C` (stereo unspecified), the TGI in the experiment with DLD-1 colon stood at 23.1 µM; in the experiment with DMS 114 small cell lung it was 10.3 µM; in the experiment with HOP-18 NSCLC, 22.3 µM; in the experiment on KM20L2 colon it was 42.7 µM; in the experiment on LXFL 529 NSCLC, 20.3 µM; in the experiment on RXF-631 renal, 33.7 µM. In the experiment with XF 498 CNS, this molecule came in with a TGI of 18.7 µM.

With `O=C(/C=C/c1ccc(Cl)c(Cl)c1)c1ccccc1Cl`, the TGI in the experiment with DLD-1 colon was determined as 10.4 µM; with DMS 114 small cell lung, 11.2 µM; in the experiment on HOP-18 NSCLC, 25.3 µM; with KM20L2 colon, 23.7 µM; in the experiment with LXFL 529 NSCLC it was 19.6 µM; in the experiment on RXF-631 renal, 31.4 µM. In the experiment on XF 498 CNS, this molecule displayed a TGI of 33.3 µM.

As to `Cc1ccc2c(c1)-c1c3c(nn1C)-c1ccccc1SC3O2` (stereo unspecified), the TGI in the experiment with DLD-1 colon was more than 100 µM; in the experiment with DMS 114 small cell lung, more than 100 µM; in the experiment on HOP-18 NSCLC, more than 100 µM; in the experiment on KM20L2 colon, more than 100 µM; in the experiment on LXFL 529 NSCLC, more than 100 µM; in the experiment on XF 498 CNS, 88.5 µM.

`NS(=O)(=O)c1ccc(N=Nc2ccc[nH]c2=O)cc1`: the TGI with MDA-N is more than 100 µM.

`CC(=Nc1ccc(N(C)C)cc1)c1ccccc1` yielded a TGI in the experiment on MDA-N of 52.2 µM.

For `N#Cc1c2ccccc2c(Cc2ccc3c(c2)OCCOCCOCCOCCOCCO3)c2ccccc12`, the TGI came to 22 µM in the experiment with DLD-1 colon; 23.9 µM with DMS 114 small cell lung; 21.8 µM with HOP-18 NSCLC; 21.7 µM in the experiment with KM20L2 colon; 30.4 µM in the experiment on LXFL 529 NSCLC; 23.5 µM in the experiment with XF 498 CNS.

As for `CN(C)NC(=O)/C(=C/c1ccc(Cl)cc1)NC(=O)c1ccccc1`, the TGI in the experiment on DLD-1 colon, with HOP-18 NSCLC, in the experiment on KM20L2 colon, in the experiment with LXFL 529 NSCLC, in the experiment on RXF-631 renal and with XF 498 CNS was more than 100 µM each time.

As for `CC(=O)[CH-]C(=O)c1ccccc1.CC(=O)[CH-]C(=O)c1ccccc1.Cl.[O-]c1ccnc2ccccc12.[O-]c1ccnc2ccccc12.[Ti+4]`, the GI50 with DLD-1 colon, in the experiment on HOP-18 NSCLC, with KM20L2 colon and in the experiment with LXFL 529 NSCLC was more than 100 µM throughout. Besides, the TGI in the experiment with DLD-1 colon, with HOP-18 NSCLC, in the experiment on KM20L2 colon and in the experiment on LXFL 529 NSCLC was more than 100 µM in each case.

Take `C/C=C(\N=C=S)C(=O)OC1C(COC(C)=O)OC([C@]2(O)CC(=O)C(=N)C(C(=O)O)=C2O)C(O)C1OC1CC(OC)C(O)([C@@H](C)OC(=O)[C@@H](C)CC)C(C)O1` (stereo partly specified): the TGI with DLD-1 colon worked out at 24.9 µM; in the experiment with DMS 114 small cell lung, 14.9 µM; in the experiment with HOP-18 NSCLC, 30.4 µM; in the experiment on KM20L2 colon it was 18.5 µM; in the experiment on LXFL 529 NSCLC it was 4.16 µM; in the experiment with MDA-N, 26.5 µM. Also, the TGI in the experiment with XF 498 CNS amounted to 5.92 µM.

For the molecule `C[P+]1(Cc2ccccc2)CCCC1`, the TGI with DLD-1 colon, in the experiment on DMS 114 small cell lung, with HOP-18 NSCLC, with KM20L2 colon and in the experiment with LXFL 529 NSCLC was more than 100 µM each time.

Turning to `CN(C)NC1=C([N+](=O)[O-])C=NN(c2ccccc2)C1`, the TGI came out at 3.6 µM with DLD-1 colon; 3.33 µM with DMS 114 small cell lung; 3.25 µM in the experiment with HOP-18 NSCLC; 3.54 µM in the experiment on KM20L2 colon; 3.03 µM with LXFL 529 NSCLC; 3.33 µM with RXF-631 renal. Also, the TGI in the experiment with XF 498 CNS stood at 3.93 µM.

Regarding `COc1ccc(Oc2nc3cc(N)cc(N)c3nc2-c2ccccc2)cc1`, in the experiment with MDA-N, the GI50 was 35.2 µM and the TGI was more than 100 µM.

Consider `Brc1ccccc2cc(-c3ccccc3)nc1-2`, for which the TGI with DLD-1 colon is 3.74 µM; with DMS 114 small cell lung, 6.12 µM; with HOP-18 NSCLC it was 13.9 µM; in the experiment on LXFL 529 NSCLC, 3.25 µM; with MDA-N, 29.4 µM; in the experiment with RXF-631 renal, more than 53.3 µM. In addition, in the experiment with XF 498 CNS, the TGI worked out at 3.44 µM.

Turning to `c1ccc(C2=NOC3C4CCC(C4)C23)cc1` (stereo unspecified), the TGI with DLD-1 colon, in the experiment with DMS 114 small cell lung, in the experiment with HOP-18 NSCLC and in the experiment on LXFL 529 NSCLC was more than 100 µM throughout.

With `Cc1ccc(S(=O)(=O)OCOS(=O)(=O)c2ccc(C)cc2)cc1`, the TGI in the experiment with DLD-1 colon, with DMS 114 small cell lung, with HOP-18 NSCLC, in the experiment with KM20L2 colon and with LXFL 529 NSCLC was more than 100 µM throughout.

In the case of `CC(=O)OCC1OC(n2cccnc2=O)C(OC(C)=O)C1OC(C)=O` (stereo unspecified), the TGI in the experiment on DLD-1 colon, in the experiment with DMS 114 small cell lung, with HOP-18 NSCLC, in the experiment with KM20L2 colon, in the experiment on LXFL 529 NSCLC and with RXF-631 renal was more than 100 µM throughout. The molecule further returned a TGI in the experiment on XF 498 CNS of more than 100 µM.

As to `CC1(C)C(=O)OC(n2cc(F)c(=O)[nH]c2=O)C1=O` (stereo unspecified), the TGI in the experiment with DLD-1 colon, in the experiment on DMS 114 small cell lung, in the experiment on HOP-18 NSCLC, with KM20L2 colon, in the experiment on LXFL 529 NSCLC and with XF 498 CNS was more than 100 µM each time.

Turning to `CCOC(=O)c1cc(=O)n(C)c(=O)n1C`, the TGI with DLD-1 colon, in the experiment on HOP-18 NSCLC, in the experiment with KM20L2 colon, in the experiment on LXFL 529 NSCLC and with XF 498 CNS was more than 100 µM each time.

The record behind these values is PubChem BioAssay (NCI).
